Data set [1] addresses T1, E. coli MurA (UDP-N-acetylglucosamine 1-carboxyvinyltransferase, EC:2.5.1.7) (Escherichia coli, UniProt P0A749). The experiment in a line: MurA inhibitory assay (colorimetric malachite green method). It is filed as biochemical. The arrangement: inferred from IMAC purification with imidazole elution; made in house; host or cells: Escherichia coli NiCo21(DE3). The settings on record: for remaining activity at 100 µM: 0.5 h, read-out: RA% @ 100 μM MurA 30 min preincubation; for IC50 [μM] MurA: Figure 1, methylated library, 30 min preincubation. The method, then: Expression and purification of E. coli MurA (UDP-N-acetylglucosamine 1-carboxyvinyltransferase, EC:2.5.1.7) was performed according to the known procedure. Briefly, the MurA plasmid was used to transform chemically competent Escherichia coli NiCo21(DE3) (New England Biolabs, Ipswich, MA, USA). The transformant was cultured at 37 °C and 250 rpm in LB broth. Expression was induced by addition of 1 mM IPTG and cultured for an additional 3 h. Cells were harvested by centrifugation (3000× g for 10 min at 4 °C), and cell pellets were stored at −80 °C until purification. Cell pellets were resuspended in buffer 50 mM Tris (pH 8), 150 mM NaCl, and 10 % glycerol and lysed on ice by sonication. Cell debris was removed by centrifugation for 30 min (16,000× g, 4 °C, repeated twice). The lysate was loaded onto a HiTrap 1 mL IMAC HP column (Cytiva, Marlborough, MA, USA). The column was washed with buffer containing 50 mM imidazole with 20 column volumes, and the protein was eluted with buffer containing 250 mM imidazole. The eluted MurA was exchanged into proprietary buffer (50 mM Tris (pH 8), 150 mM NaCl, 10 % glycerol).
The inhibition of the MurA enzyme was monitored using the colorimetric malachite green method in which orthophosphate generated during the reaction is detected. The assay was performed in 96-well microplates with a final volume of 50 μL. The MurA enzyme was preincubated with the substrate UNAG (UDP-N-acetylglucosamine, Sigma, St. Louis, MO, USA) and compound for 30 min at 37 °C. […] After incubation for 15 min at 37 °C, the enzyme reaction was ended by adding Biomol® reagent (100 µL), and the absorbance was measured at 650 nm after 5 min using a microplate reader (Synergy H4, BioTek Instruments, Inc., Winooski, VT, USA). All of the experiments were run in duplicate. […] IC50 values were determined by measuring residual activities at 7 different compound concentrations and calculated using GraphPad Prism (GraphPad Software, San Diego, CA, USA).

Data set [2] is described as follows: NMR-based single-point GSH reactivity assay. The data set is classed as physicochemical. The note with it: pH 7.4, 1H NMR. The method, then: For the NMR assay, a 500 mM D2O stock solution was first prepared for each fragment along with an 800 mM D2O stock solution of GSH. Thereafter, a 5 mM electrophilic standard solution was prepared by adding 20 μL of stock solution to a 2 mL 100 mM potassium hydrogen phosphate/sodium hydrogen phosphate buffer solution (pH 7.4). A total of 0.5 mL of this electrophilic standard solution was placed in an NMR tube, and then the ^1H NMR was recorded. The peak values obtained during the measurement were considered the zero-point measurement or reference peaks of the reactivity study. For the reactivity measurement, 20 μL of the fragment stock solution was added to 1980 μL phosphate buffer solution (pH 7.4) along with 20 μL of GSH stock solution (final concentration = […] GSH and 5 mM fragment). The contents were vortexed until homogenization and were transferred to an NMR tube. The resulting mixture was analyzed by ^1H NMR measurements after 15 and 30 min, and 4 and 24 h. The AUC (area under the curve) values were determined via integration of the corresponding peaks in the NMR spectra.

For another data set, the target named is MurA (Escherichia coli, UniProt P0A749). The data set is described as follows: MurA covalent labelling, intact MS. It is filed as binding, E. coli. The note with it: 5 mM fragment, 37 °C, 60 min (Figure S1). The method, then: The covalent labelling procedure was conducted as described earlier with slight modifications. First, 42 μM stock solution of MurA in 20 mM HEPES at pH 7.2–7.4 with 1 mM DTT (dithiothreitol, Sigma) was filtered through a G25 desalting column, and the medium was changed to 50 mM Tris with 0.005% Triton X-100 at pH 8.0. For the activation of the enzyme, 1 mg UNAG was added as a solid to reach 40 mM concentration, and the mixture was incubated at 37 °C for 30 min. Fragments were added from a 100 mM DMSO stock diluted in the labelling solution to 5 mM. The incubation was continued at 37 °C for an additional 60 min. After the labelling, the mixture was purified on a G25 desalting column.
MurA, sequence (P0A749 whole entry, the tested form may be a part): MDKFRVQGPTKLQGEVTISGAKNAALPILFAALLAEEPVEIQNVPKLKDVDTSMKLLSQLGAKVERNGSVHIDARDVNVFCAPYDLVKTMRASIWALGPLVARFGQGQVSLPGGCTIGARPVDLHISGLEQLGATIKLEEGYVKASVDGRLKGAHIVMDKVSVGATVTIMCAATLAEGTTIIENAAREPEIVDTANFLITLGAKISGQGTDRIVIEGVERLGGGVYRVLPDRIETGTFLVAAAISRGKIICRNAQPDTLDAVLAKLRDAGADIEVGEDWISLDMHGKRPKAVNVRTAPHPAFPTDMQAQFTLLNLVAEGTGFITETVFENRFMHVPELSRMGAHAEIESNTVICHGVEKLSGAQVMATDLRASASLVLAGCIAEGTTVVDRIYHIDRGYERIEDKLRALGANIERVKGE
The molecular weights of the conjugates were identified using a Triple-TOF 5600+ hybrid Q-TOF LC/MS/MS system (Sciex, Singapore, Woodlands) equipped with a Duo Spray Ion Source coupled with a Shimadzu Prominence LC20 UFLC (Shimadzu, Kyoto, Japan) system consisting of a binary pump, an autosampler, and a thermostated column compartment. Data acquisition and processing were performed using Analyst TF software version 1.7.1 (AB Sciex Instruments, Redwood City, CA, USA). Chromatographic separation was achieved on a Thermo BetaBasic C8 (50 mm × 2.1 mm, 3 μm, 150 Å) HPLC column. […]

The target of data set [3] is T1, E. coli MurA (UDP-N-acetylglucosamine 1-carboxyvinyltransferase, EC:2.5.1.7). The settings on record: read-out: MurA IC50 (µM) Non-Methylated; first-generation non-methylated heterocycles; cited from earlier work.
Where [4] appears, read: Table 1, methylated heterocycles, read-out: MurA IC50 (µM) Methylated.

Like-named read-outs stand apart in the source and are kept apart here.

T1 sequence (P0A749 whole entry): as the sequence (P0A749 whole entry, the tested form may be a part) above

For `C[n+]1cccnc1Cl` [D1+], the remaining activity at 100 µM in data set [1] was determined as 99.1%.
For the molecule `C#Cc1nccc[n+]1C` [D6+], in data set [1], the remaining activity at 100 µM is 6.7%. In addition, in data set [2], the “Single point GSH reactivity (% conversion in 15 min, 16 equiv. GSH)” value is 100%.
Take `C[n+]1ccc(I)cc1` [C3+]: in data set [1], the “IC50 [μM] MurA” value is listed as “single-digit micromolar”. Besides, in data set [1] (setting [4]), the 50% inhibitory concentration (IC50) is 4.5 µM. In addition, the “covalent labelling of MurA by intact MS” value on MurA is “single and double labelling on MurA”.
For the molecule `C#Cc1cc[n+](C)cc1` [C6+], in data set [1] (setting [4]), the IC50 was 64.7 µM.
For `C[n+]1cccnc1I` [D3+], in data set [1], the “IC50 [μM] MurA” value is recorded as “single-digit micromolar”. In data set [1] (setting [4]), the IC50 stood at 2.99 µM. Besides, the “fold increase in MurA inhibitory potency of methylated versus non-methylated pair” value in data set [1] (from IC50 values of Table 1) is 100 fold.
For the molecule `C[n+]1ccoc1I` [N3+], in data set [1], the remaining activity at 100 µM is 1.2%. Moreover, the “Single point GSH reactivity (% conversion in 15 min, 16 equiv. GSH)” value in data set [2] came out at 100%.
Take `C[n+]1ccsc1Br` [R2+]: in data set [1], the remaining activity at 100 µM is 42.8%.
On to `Cn1cc[n+](C)c1I` [H3+], for which the remaining activity at 100 µM in data set [1] was 10.4%. Besides, in data set [1] (setting [4]), the IC50 was determined as 10.2 µM. The “Single point GSH reactivity (% conversion in 15 min, 16 equiv. GSH)” value in data set [2] was found to be 100%.
In the case of `C[C@@H]1O[C@@H]1P(=O)(O)O` [fosfomycin], in data set [3], the IC50 was 0.25 ± 0.01 µM.
Consider `C#Cc1cccc[n+]1C` [A6+], for which the IC50 in data set [1] was determined as 50 µM.
As for `C[n+]1ccccc1Cl` [A1+], the IC50 in data set [1] is 51.6 µM.
Take `C[n+]1cccnc1Br` [D2+]: the remaining activity at 100 µM in data set [1] came to 98.2%.
On the same count and under the same terms, the result for `C#Cc1cnc[n+](C)c1` [F6+] reads 77.8%.
Regarding `C[n+]1ccccc1I` [A3+], the IC50 in data set [1] was found to be 15.5 µM.

The IC50 is the concentration that inhibits the measured activity by half.

These data come from PMC9781958, “Next-Generation Heterocyclic Electrophiles as Small-Molecule Covalent MurA Inhibitors” (Pharmaceuticals, 2022).
